Non-standard residues stand in square brackets, D forms with d. Residues, ends and D or L forms follow the SMILES beside them.
How the values were obtained:
[1] = test system: endogenous growth hormone release; assay: Release of endogenous growth hormone in vivo
[2] = Oral bioavailability, pharmacokinetics in fasted Beagle dogs; format: in vivo; details: intravenous and oral administration in 5% glucose solution
Experimental: The pharmacokinetics of the compound can be investigated in fasted Beagle dogs.
Intravenous and oral administration of the test compound, in 5% glucose solution, was separated by a one weeks washout.
Blood samples were collected immediately before drug administration (time zero) and than 0.08, 0.25, 0.50, 0.75, 1.0, 1.5, 2.0, 3.0, 4.0, 5.0, and 6.0 hours after administration.
The plasma samples were stored frozen (<−18° C.) pending analysis.
An HPLC method with solid phase extraction and UV detection was used for the quantification of the compound in plasma.
The pharmacokinetic parameters for compounds were calculated by non-compartmental methods using the PC based pharmacokinetic software WinNonlin, version 1.1 (Scientific Consulting Inc., Apex, N.C., USA).

[3] = test system: Carboxypeptidase mix: carboxypeptidase Y and B; assay: Metabolic stability in carboxypeptidase mix (ESMS, SIM of molecular ion); details: carboxypeptidase Y and B 0.025 mg/ml, 50 mM ammoniumacetate pH 4.5, 37° C., 24 h, decrease in SIM signal
Experimental: (§1) The compound is dissolved at a concentration of 1 mg/ml in water. 25 ml of this solution is added to 175 ml of the respective enzyme-solution (resulting in an enzyme:substrate ratio (w/w) of approximately 1:5). The solution is left at 37° C. overnight. 10 ml of the various degradation solutions is analyzed against a corresponding zero-sample using flow injection electrospray mass spectrometry (ESMS) with selected ion monitoring of the molecular ion. If the signal has decreased more than 20% compared to the zero-sample, the remainder of the solution is analyzed by HPLC and mass spectrometry in order to identify the extent and site(s) of degradation precisely.
(§2) Enzymes (trypsin, chymotrypsin, elastase aminopeptidase M and carboxypeptidase Y and B) were all purchased from Boehringer Mannheim GmbH (Mannheim, Germany) […]
(§3) Quantification of the compound (before and after degradation) was done on the API III instrument using single ion monitoring of the molecular ion in question with flow injection of the analyte. […]
(§4) Identification of degradation products furthermore involved the use of plasma desorption mass spectrometry (PDMS) with sample application on nitrocellulose coated targets and standard instrumental settings. The accuracy of the hereby determined masses is generally better than 0.1%. […]

[4] = test system: Pancreatic enzyme mix: trypsin, chymotrypsin and elastase; assay: Metabolic stability in pancreatic enzyme mix (ESMS, SIM of molecular ion); details: chymotrypsin and elastase 0.025 mg/ml, 100 mM ammoniumbicarbonate pH 8.0, 37° C., 24 h, decrease in SIM signal
Experimental: as §1, §2, §3, §4

| Compound | ability to release endogenous growth hormone in vivo [1] | oral availability [2] | Stability in Carboxypeptidase mix [3] | Stability in Pan. Enzyme mix [4] |
| --- | --- | --- | --- | --- |
| CN(C)N(C)C(=O)[C@@]1(Cc2ccccc2)CCCN(C(=O)[C@@H](Cc2c[nH]c3ccccc23)NC(=O)C(C)(C)N)C1 [Example 1, 2-Amino-N-[(1R)-2-[(3R)-3-benzyl-3-(N,N′,N′-trimethylhydrazinocarbonyl)piperidin-1-yl]-1-(1H-indol-3-ylmethyl)-2-oxoethyl]-2-methylpropionamide] | possess the ability to release endogenous growth hormone in vivo | about 50% |  |  |
| C[C@H](NC(=O)[C@@H](Cc1c[nH]c2ccccc12)NC(=O)[C@@H](N)Cc1c[nH]cn1)C(=O)N[C@@H](Cc1c[nH]c2ccccc12)C(=O)N[C@H](Cc1ccccc1)C(=O)N[C@@H](CCCCN)C(N)=O [GHRP-6] (H-H[dW]AW[dF]K-NH2) |  |  | − (Unstable (more than 20% decrease in SIM signal after 24 h in degradation solution)) | − (Unstable (more than 20% decrease in SIM signal after 24 h in degradation solution)) |
| GHRP-2 |  |  | − (Unstable (more than 20% decrease in SIM signal after 24 h in degradation solution)) | − (Unstable (more than 20% decrease in SIM signal after 24 h in degradation solution)) |

From patent US6576648B2, “Compound with growth hormone releasing properties” (Novo Nordisk A/S, priority 1999, dated 2003)
